Reference: patent US9993529B2, “Stable formulations of a hyaluronan-degrading enzyme” (Halozyme, Inc., priority 2011, dated 2018)
Read-outs that look alike come from different tables or passages of the source. Blank lines part the entries; values can stand above or below the compound they belong to. Residues, ends and D or L forms follow the SMILES beside them.

Tests used:
SEC, % main rHuPH20 peak = type: physicochemical
Description: SEC was performed using the following conditions: 1× Phosphate Buffered Saline (PBS), a Toso BioScience G2000 SWXL column, and a flow rate set at 1 mL/min. Data were collected as described above and means were reported and entered into the design table following the sample sequence provided by the DOE software.

[1] = RP-HPLC insulin apparent solubility / percent recovery (content)
Description: Apparent solubility was measured as the percent insulin recovery as compared to the initial formulations/conditions.
Samples were prepared by withdrawing 100 μL from each vial at every time point and centrifuging prior to loading. Samples were stored in an autosampler at 4° C. prior to use, and were considered stable for 3 days after preparation. All samples were tested in duplicate.
For insulin, 20 μL was injected for each HPLC run.
To determine the apparent solubility, the peak area of insulin/insulin analog main peak and desamido peak were integrated and combined together to calculate the percentage relative to the standards. […] The data were processed using Design-Expert® 7.0 (StatEase) and the “historical data” feature. Insulin percent purity was expressed as the percent of main insulin versus all insulin species.

rHuPH20 = target: T1, rHuPH20 (Homo sapiens, UniProt P38567); conditions: for Effect on rHuPH20 enzymatic activity: stabilizer screen in rHuPH20/insulin formulation ([…] m-cresol, 0.2% phenol, pH 7.3±0.1), 30° C. about one week, semi-quantitative in comparison with NaCl; for rHuPH20 activity: 48 hours
T1 sequence (P38567 36-482): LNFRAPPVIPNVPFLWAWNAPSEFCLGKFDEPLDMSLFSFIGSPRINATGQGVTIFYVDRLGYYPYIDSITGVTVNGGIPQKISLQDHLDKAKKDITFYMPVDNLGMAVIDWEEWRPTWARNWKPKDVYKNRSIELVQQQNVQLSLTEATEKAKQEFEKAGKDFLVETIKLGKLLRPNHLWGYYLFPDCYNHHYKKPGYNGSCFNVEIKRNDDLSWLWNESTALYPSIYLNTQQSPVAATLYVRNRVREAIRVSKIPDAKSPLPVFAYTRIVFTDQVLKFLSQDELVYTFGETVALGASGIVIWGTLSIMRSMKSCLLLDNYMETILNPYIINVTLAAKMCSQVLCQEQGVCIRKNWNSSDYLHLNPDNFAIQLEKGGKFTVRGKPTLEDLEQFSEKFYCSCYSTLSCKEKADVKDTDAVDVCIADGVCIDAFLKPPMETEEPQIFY
Description: The activity of a hyaluronan degrading enzyme can be assessed using methods well known in the art. […] A Hyaluronidase Reference Standard (USP) or National Formulary (NF) Standard Hyaluronidase solution can be used in an assay to ascertain the activity, in units, of any hyaluronidase. In one example, activity is measured using a microturbidity assay. […] The turbidity of the resulting sample is measured at 640 nm after an additional development period.

[2] = Temperature effect on pH and NaOH titration of lysyl lysine buffer; type: physicochemical; conditions: Ex27 rHuPH20/insulin glulisine formulations
[3] = RP-HPLC rHuPH20 oxidation peaks (ox-1, ox-2); type: physicochemical; conditions: 0.02% surfactant, 30° C., 72 hours
Excerpt: The stability of hyaluronan degrading enzymes in a composition, such as in the co-formulations provided herein, also can be assessed using other methods and assays known in the art. […] Percent recovery is the relative percentage of the hyaluronidase in the co-formulation over time and at various storage conditions, as compared to a reference sample. […] An increase in particle size and a decrease in the melting temperature indicates denaturation and subsequent aggregation of the hyaluronidase. […] Other methods known to one of skill in the art that can be used to determine the stability of the hyaluronidase in the co-formulations provided herein, include polyacrylamide gel electrophoresis (PAGE), immunoblotting, nuclear magnetic resonance (NMR) spectroscopy, mass spectrometry, circular dichroism (CD) and dye-based fluorescence assays.
The formulations varied in the surfactant and surfactant concentration and the buffer (either histidine or phosphate).
Methionine oxidation can be prevented by addition of free methionine as a scavenger to react with potential oxidative compounds.

[4] = in vivo; cited from earlier work
[5] = 35° C., 1 day, concentrations of Table 21
[6] = stabilizer screen in rHuPH20/insulin formulation, RP-HPLC on samples stored at 5° C., semi-quantitative in comparison with NaCl
[7] = 4° C., concentrations of Table 22

- % Main rHuPH20 peak by non-denaturing SEC (SEC, % main rHuPH20 peak; [5]): <LOD
Compound: OCCCCCl [4-Chloro-1-butanol]

- Effect on insulin solubility [1, 6]: No effect
- Effect on rHuPH20 enzymatic activity (rHuPH20): No effect
Compound: C[N+](C)(C)CC(=O)O [Betaine]

Compound: NC(=O)CC[C@H](N)C(=O)O [Glutamine]
- Effect on insulin solubility [1, 6]: No effect
- Effect on rHuPH20 enzymatic activity (rHuPH20): No effect

- Effect on rHuPH20 enzymatic activity (rHuPH20): No effect
Compound: NCC(=O)NCC(=O)O [Gly-Gly] (H-Gly-Gly-OH)

- Effect on rHuPH20 enzymatic activity (rHuPH20): No effect
Compound: O[C@H]1[C@H](O)[C@@H](O)[C@H](O)[C@@H](O)[C@H]1O [Inositol]

- % Main rHuPH20 peak by non-denaturing SEC (SEC, % main rHuPH20 peak; [7]): 100.00%
Compound: N[C@@H](Cc1ccccc1)C(=O)O [L-Phenylalanine]

Compound: Cl.Cl.NCCCCC(N)C(=O)NC(CCCCN)C(=O)O (stereo not drawn) [Lys-Lys, H-Lys-Lys-OH HCl]
- Effect on insulin solubility [1, 6]: Reduced solubility
- Effect on insulin solubility ([1]; stabilizer screen, 5° C.): caused severe precipitation of insulin
- Lys-Lys concentration sufficient to improve rHuPH20 stability (rHuPH20; Ex24, 40° C.): 10 mM
- Effect on rHuPH20 enzymatic activity (rHuPH20): Strong stabilizer
- stabilization of rHuPH20 compared with NaCl (rHuPH20; stabilizer screen, […] m-cresol, 0.2% phenol, 30° C., about one week): stabilized rHuPH20 more than NaCl
- temperature effect (dpH/dT) [2]: −0.033 U/° C.

Compound: NCCCC[C@H](N)C(=O)O [Lysine]
- Effect on insulin solubility [1, 6]: No effect
- Effect on rHuPH20 enzymatic activity (rHuPH20): No effect

- Effect on rHuPH20 enzymatic activity (rHuPH20): No effect
Compound: OC[C@@H](O)[C@@H](O)[C@H](O)[C@H](O)CO [Mannitol]

Compound: O=C(O)CCCc1ccccc1 [Phenyl butyric acid]
- Effect on rHuPH20 enzymatic activity (rHuPH20): No effect

Compound: O=C([O-])c1ccccc1.[Na+] [Sodium Benzoate]
- Effect on rHuPH20 enzymatic activity (rHuPH20): No effect

- Effect on rHuPH20 enzymatic activity (rHuPH20): No effect
Compound: OC[C@H]1O[C@@](CO)(O[C@H]2O[C@H](CO)[C@@H](O)[C@H](O)[C@H]2O)[C@@H](O)[C@@H]1O [Sucrose]

- Effect on rHuPH20 enzymatic activity (rHuPH20): No effect
Compound: OC[C@H]1O[C@H](O[C@H]2O[C@H](CO)[C@@H](O)[C@H](O)[C@H]2O)[C@H](O)[C@@H](O)[C@@H]1O [Trehalose]

Compound: C[N+](C)(C)[O-] [Trimethylamine oxide (TMAO)]
- Effect on insulin solubility [1, 6]: No effect
- Effect on rHuPH20 enzymatic activity (rHuPH20): No effect

- Effect on insulin solubility [1]: No effect
- Effect on rHuPH20 enzymatic activity (rHuPH20): No effect
Compound: NC(CO)(CO)CO [Tris (100 mM)]

- Effect on insulin solubility [1]: No/slight effect;
- Effect on rHuPH20 enzymatic activity (rHuPH20): No effect
Compound: OCC(O)CO [glycerol]

Compound: Cc1cccc(O)c1 [m-cresol]
- % Main rHuPH20 peak by non-denaturing SEC (SEC, % main rHuPH20 peak; [7]): 100.00%
- rHuPH20 activity (rHuPH20; 35° C.): <LOQ

- Effect on insulin solubility [1, 6]: No effect
- Effect on rHuPH20 enzymatic activity (rHuPH20): No effect
Compound: CSCC[C@H](N)C(=O)O [methionine]

Compound: COC(=O)c1ccc(O)cc1 [methylparaben]
- % Main rHuPH20 peak by non-denaturing SEC (SEC, % main rHuPH20 peak; [7]): 100.00%
- rHuPH20 activity (rHuPH20; 4° C.): 10,380
- rHuPH20 activity (rHuPH20; 35° C.): 12,660
- Enzymatic Activity of rHuPH20 (rHuPH20; preservative 0.05 %, 1 Month, 25° C., insulin/rHuPH20): 2061 U/mL
- Enzymatic Activity of rHuPH20 (rHuPH20; preservative 0.05 %, 1 Week, 35° C.): 1058^2 U/mL
- Enzymatic Activity of rHuPH20 (rHuPH20; preservative 0.05 %, 2 Weeks, 35° C.): 1018^2 U/mL
- Enzymatic Activity of rHuPH20 (rHuPH20; preservative 0.1 %, 1 Month, 25° C.): 1919 U/mL
- Enzymatic Activity of rHuPH20 (rHuPH20; preservative 0.1 %, 1 Week, 35° C.): 2085 U/mL
- Enzymatic Activity of rHuPH20 (rHuPH20; preservative 0.1 %, 2 Weeks, 35° C.): 1968 U/mL
- Enzymatic Activity of rHuPH20 (rHuPH20; preservative 0.2 %, 1 Month, 25° C.): 2196 U/mL
- Enzymatic Activity of rHuPH20 (rHuPH20; preservative 0.2 %, 1 Week, 35° C.): 1927 U/mL
- Enzymatic Activity of rHuPH20 (rHuPH20; preservative 0.2 %, 2 Weeks, 35° C.): 1590 U/mL
- Enzymatic Activity of rHuPH20 (rHuPH20; preservative 0.3 %, 1 Month, 25° C.): 2049 U/mL
- Enzymatic Activity of rHuPH20 (rHuPH20; preservative 0.3 %, 2 Weeks, 35° C.): 447 U/mL

- Effect on rHuPH20 enzymatic activity (rHuPH20): No effect
Compound: OC[C@@H](O)[C@@H](O)[C@H](O)[C@@H](O)CO [sorbitol]

- % Main rHuPH20 peak by non-denaturing SEC (SEC, % main rHuPH20 peak; [5]): <LOD
Compound: Benzalkonium Chloride

Compound: Polysorbate 20
- % of Oxidation Peak 1 of rHuPH20 ([3]; Methionine 0 mM): 4.01%
- % of Oxidation Peak 1 of rHuPH20 ([3]; Methionine 2 mM): 3.43%
- % of Oxidation Peak 1 of rHuPH20 ([3]; Methionine 10 mM): 3.37%
- % of Oxidation Peak 1 of rHuPH20 ([3]; Methionine 50 mM): 3.38%

- % of Oxidation Peak 1 of rHuPH20 ([3]; Methionine 0 mM): 4.01%
- % of Oxidation Peak 1 of rHuPH20 ([3]; Methionine 2 mM): 3.50%
- % of Oxidation Peak 1 of rHuPH20 ([3]; Methionine 10 mM): 3.44%
- % of Oxidation Peak 1 of rHuPH20 ([3]; Methionine 50 mM): 3.34%
Compound: Polysorbate 80

Compound: detemir: long-lasting insulin analog
- Duration [4]: 28 h

Compound: glargine: long-lasting insulin analog
- Duration [4]: 28 h
